Results: patent US20030232409A1, “Immortal porcine cells” (Regents of the University of Minnesota, priority 2002, published 2003)

Legend:
PEGE primary cells [1] = assay: Short-circuit current (Isc) of cell monolayers in Ussing chambers, primary cells; type: cell-based, porcine
Procedure: (§1) PEGE primary cells, isolated and cultured as previously described (Deachapunya and O'Grady, J. of Physiology, 508 (Part 1), 31-47 (1998)), and PEGE1 cells were used. Transepithelial resistance of cell monolayers was measured using the EVOM epithelial voltohmmeter coupled to Ag/AgCl “chopstick” electrodes (World Precision Instrument, New Haven, Conn.). After 10 days, the confluent culture inserts were mounted in Ussing Chambers, bathed on both sides with standard porcine Ringer solution which was maintained at 37° C., and bubbled with 95% O2 and 5% CO2. Transepithelial potential difference and Isc were measured with the use of voltage-clamp circuitry from JWT Engineering (Overland Park, Kans.). The data from the voltage clamp experiments was digitized, stored and analyzed using Workbench data acquisition software (Kent Scientific Corporation, Litchfield, Conn.) and recorded with a Compaq pentium microcomputer.
(§2) All values are presented as means±SEM. n is the number of monolayers. The differences between control and treatment means were analyzed using a t-test for paired or unpaired means where appropriate. A value of p<0.05 was considered statistically significant.

PEGE1 cells = assay: Short-circuit current (Isc) of cell monolayers in Ussing chambers, immortalized cells; type: cell-based, porcine; conditions: for Mean 8 cpt cAMP-stimulated Isc / Mean 8 cpt cAMP-stimulated NPPB-sensitive Isc: n=6
Procedure: as §1, §2

PEGE primary cells [2] = conditions: serum-containing conditions, Deachapunya and O'Grady 1998; cited from earlier work

In the case of `COc1ccc2c(c1)c(CC(=O)O)c(C)n2C(=O)c1ccc(Cl)cc1` [indomethecin], the “Mean indomethecin-sensitive Isc” value (PEGE primary cells [1]; passage 4, 10 μM indomethecin, n=12) is reported as 3.4 μA, the “Mean indomethecin-sensitive Isc” value (PEGE1 cells; passage 19, 10 μM indomethecin, n=15) is reported as 5.0 μA and the “Mean indomethecin-sensitive Isc” value (PEGE1 cells; passage 44-51, 10 μM indomethecin, n=14) is reported as 0.6 μA.

In the case of `Nc1ncnc2c1nc(Sc1ccc(Cl)cc1)n2[C@@H]1O[C@@H]2COP(=O)(O)O[C@H]2[C@H]1O` [8 cpt cAMP, 8(4-chlorophenylthiol) cAMP], the “Mean 8 cpt cAMP-stimulated Isc” value (PEGE primary cells [1]; passage 4, 50 μM 8 cpt cAMP, n=6) is reported as 25.9 μA, the “Mean 8 cpt cAMP-stimulated Isc” value (PEGE1 cells; passage 19, 50 μM 8 cpt cAMP) is reported as 33.2 μA and the “Mean 8 cpt cAMP-stimulated Isc” value (PEGE1 cells; passage 44-51, 50 μM 8 cpt cAMP) is reported as 15.6 μA.

With `CCCCC[C@H](O)/C=C/[C@H]1[C@H](O)CC(=O)[C@@H]1C/C=C\CCCC(=O)O` [PGE2] the “Mean PGE2-stimulated Isc” value (PEGE primary cells [1]; passage 4, 3 μM PGE2, n=5) was 40.3 μA, the “Mean PGE2-stimulated Isc” value (PEGE1 cells; passage 19, 3 μM PGE2, n=6) was 69.0 μA and the “Mean PGE2-stimulated Isc” value (PEGE1 cells; passage 44-51, 3 μM PGE2, n=5) was 35.0 μA. The “Effect of stimulation on Isc” value (PEGE primary cells [2]) was “increase in Isc”.

With `O=C(O)c1cc([N+](=O)[O-])ccc1NCCCc1ccccc1` [NPPB, 5-nitro-2-(3phenylpropylamino) benzoic acid] the “Mean PGE2-stimulated NPPB-sensitive Isc” value (PEGE primary cells [1]; passage 4, 100 μM NPPB after 3 μM PGE2, n=5) was 24.9 μA, the “Mean 8 cpt cAMP-stimulated NPPB-sensitive Isc” value (PEGE primary cells [1]; passage 4, 100 μM NPPB after 50 μM 8 cpt cAMP, n=6) was 17.6 μA and the “Mean PGE2-stimulated NPPB-sensitive Isc” value (PEGE1 cells; passage 19, 100 μM NPPB after 3 μM PGE2, n=6) was 33.4 μA. The “Mean 8 cpt cAMP-stimulated NPPB-sensitive Isc” value (PEGE1 cells; passage 19, 100 μM NPPB after 50 μM 8 cpt cAMP) was 24.3 μA, the “Mean PGE2-stimulated NPPB-sensitive Isc” value (PEGE1 cells; passage 44-51, 100 μM NPPB after 3 μM PGE2, n=5) was 12.5 μA and the “Mean 8 cpt cAMP-stimulated NPPB-sensitive Isc” value (PEGE1 cells; passage 44-51, 100 μM NPPB after 50 μM 8 cpt cAMP) was 14.5 μA. The “Effect on PGE2- or cAMP-stimulated increase in Isc” value (PEGE primary cells [2]) was “blocked”.

With `NC(=NCc1ccccc1)NC(=O)c1nc(Cl)c(N)nc1N` [benzamil] the “Mean benzamil-sensitive Isc” value (PEGE primary cells [1]; passage 4, 5 μM benzamil, n=12) was 0.5 μA, the “Mean benzamil-sensitive Isc” value (PEGE1 cells; passage 19, 5 μM benzamil, n=15) was 1.6 μA and the “Mean benzamil-sensitive Isc” value (PEGE1 cells; passage 44-51, 5 μM benzamil, n=15) was 1.7 μA.
